A value given as a limit tells only on which side of the number the result lay.

For the first assay, the target named is T1, PDE4B (Homo sapiens, UniProt Q07343).
T1 construct: hexahistidine (His6) (N); made in house
T1 sequence (Q07343 330-659 limits assumed, species assumed): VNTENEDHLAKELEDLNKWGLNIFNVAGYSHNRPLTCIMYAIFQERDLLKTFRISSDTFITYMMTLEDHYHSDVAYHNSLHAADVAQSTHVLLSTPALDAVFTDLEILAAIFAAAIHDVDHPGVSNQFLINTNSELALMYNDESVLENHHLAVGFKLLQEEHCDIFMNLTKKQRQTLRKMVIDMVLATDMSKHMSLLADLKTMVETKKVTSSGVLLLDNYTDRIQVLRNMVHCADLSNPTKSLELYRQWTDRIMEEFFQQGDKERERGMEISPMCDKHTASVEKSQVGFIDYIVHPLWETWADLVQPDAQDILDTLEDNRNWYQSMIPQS
Kind of assay: coupled PDE/AK bioluminescent assay. Format: biochemical. Conditions: catalytic domain of PDE4B. The text has this: Phosphodiesterases regulate the activity of the second messenger cyclic adenosine monophosphate (cAMP) by hydrolyzing cAMP to adenosine monophosphate (AMP). We developed a novel coupled PDE/AK bioluminescent high-throughput assay to measure the activity of phosphodiesterases. In the PDE/AK assay, the AMP produced from the hydrolysis of cAMP by phosphodiesterase is converted to adenosine diphosphate (ADP) by the phosphotransferase activity of adenylate kinase (also known as ADK or myokinase). Adenylate kinase will catalyze the conversion of 1 mole of AMP and 1 mole of ATP into 2 moles of ADP. Thus the conversion of AMP to ADP will result in the subsequent loss of ATP. The decrease in ATP concentration can be monitored as light output using luciferase in a reaction that requires ATP to produce light. The PDE/AK assay uses luciferase, which catalyzes the production of light from ATP present in the reaction mix. The amount of emitted light is inversely proportional to the level of AMP present in the reaction. Test compounds are incubated with the phosphodiesterases and phosphodiesterase inhibitors will decrease the rate of cAMP hydrolysis and decrease the subsequent production of AMP. Thus phosphodiesterase inhibitors will decrease the conversion of ATP to ADP and result in the greatest emission of light.
Compounds may be screened for functional potency in in vitro biochemical assays for their ability to inhibit the activity of phosphodiesterase (PDE) enzymes. A novel coupled PDE/AK assay was utilized to measure the inhibitory activity of compounds on PDE isoforms. The catalytic domain of PDE4B was fused to an amino-terminus hex-histidine affinity tag and purified. PDE4B enzyme was incubated with compounds for 10 minutes. Cyclic AMP substrate, ATP and adenylate kinase were then added to the PDE enzyme mix and incubated for 45 minutes at room temperature. A commercial ATP detection assay, Perkin Elmer's easyLite ATP detection reagent, was then added to measure the relative amount of ATP present in the reaction. After 10 minute incubation, the luminescent signal was quantitated with either the Perkin Elmer Viewlux or Molecular Devices Acquest or Analyst. Roflumilast and Rolipram are the positive controls used in the assay.
The PDE/AK assay can be performed with any cAMP dependent phosphodiesterase, and can be performed in 96-, 384-, or 1536-well plates. […] Specifically, the use of radioactive substrates in a phosphodiesterase activity assay requires special protocols for handling and waste disposal, and reduced throughput. Modified substrates add the additional complexity of potentially altering the binding to the phosphodiesterase catalytic site. Fluorescently modified substrates may cause fluorescence artifacts that may interfere in the interpretation of assay results. The use of beads that selectively bind to either the cAMP or AMP may cause an additional complexity in reagent handling. The use of antibodies that selectively bind to either cAMP or AMP can be extremely costly with a relatively small signal to noise ratio. Therefore, the novel PDE/AK assay represents a simple, cost-effective alternative to known methods.
Usually IC50 stands for the midpoint of a concentration-inhibition curve. Low values mean greater potency in that assay, high ones weaker potency in that assay. For the molecule `COc1ccc2c(Nc3c(Cl)cncc3Cl)cc(N)nc2c1OC1CCCC1` [Example 23, 8-(Cyclopentyloxy)-N4-(3,5-dichloropyridin-4-yl)-7-methoxyquinoline-2,4-diamine], the IC50 is not above 1000 nM.
Still for that read-out and setting: to `COc1ccc2c(Nc3c(C)cncc3C)ccnc2c1OC1CCCC1` [Example 15, 8-(Cyclopentyloxy)-N-(3,5-dimethylpyridin-4-yl)-7-methoxyquinolin-4-amine] belongs more than 1000 nM; to `COc1ccc2c(Nc3c(Cl)cccc3Cl)nccc2c1OC1CCCC1` [Example 7, 5-(Cyclopentyloxy)-N-(2,6-dichlorophenyl)-6-methoxyisoquinolin-1-amine], more than 1000 nM; to `COc1cc(Nc2c(Cl)cncc2Cl)c2ccc(OC)c(OC3CCCC3)c2n1` [Example 19, 8-(Cyclopentyloxy)-N-(3,5-dichloropyridin-4-yl)-2,7-dimethoxyquinolin-4-amine], not above 1000 nM.
Molecule `COc1ccc2c(Nc3c(Br)cncc3Br)ccnc2c1OC1CCCC1` [Example 16, 8-(Cyclopentyloxy)-N-(3,5-dibromopyridin-4-yl)-7-methoxyquinolin-4-amine] returned an IC50 of more than 1000 nM.
Still for that read-out and setting: to `COc1ccc2c(Nc3c(Cl)cncc3Cl)nccc2c1OC1CCCC1` [Example 8] belongs not above 1000 nM; to `COc1ccc2c(Cc3c(Cl)cncc3Cl)nccc2c1OC1CCCC1` [Example 9, 5-(Cyclopentyloxy)-1-[(3,5-dichloropyridin-4-yl)methyl]-6-methoxyisoquinoline], more than 1000 nM; to `COc1ccc2c(Nc3c(Cl)cncc3Cl)c(Cl)c(OCCN(C)C)nc2c1OC1CCCC1` [Example 26, 3-Chloro-8-(cyclopentyloxy)-N-(3,5-dichloropyridin-4-yl)-2-(2-(dimethylamino)ethoxy)-7-methoxyquinolin-4-amine], not above 1000 nM.
Same read-out and setting: with `CCOc1cc(Nc2c(Cl)cncc2Cl)c2ccc(OC)c(OC3CCCC3)c2n1` [Example 20, 8-(Cyclopentyloxy)-N-(3,5-dichloropyridin-4-yl)-2-ethoxy-7-methoxyquinolin-4-amine] the figure was not above 1000 nM.
Same read-out and setting: to `COc1ccc2c(Nc3c(Cl)cncc3Cl)ncnc2c1OC1CCCC1` [Example 2, 8-(Cyclopentyloxy)-N-(3,5-dichloropyridin-4-yl)-7-methoxyquinazolin-4-amine] belongs more than 1000 nM; to `COc1ccc2c(Nc3c(Cl)cncc3Cl)cc(OCCN3CCOCC3)nc2c1OC1CCCC1` [Example 28, 8-(Cyclopentyloxy)-N-(3,5-dichloropyridin-4-yl)-7-methoxy-2-(2-morpholinoethoxy)quinolin-4-amine], not above 1000 nM.
`COc1ccc2c(NCc3c(Cl)cccc3Cl)coc2c1OC1CCCC1` [Example 12, 7-(Cyclopentyloxy)-N-(2,6-dichlorobenzyl)-6-methoxybenzofuran-3-amine]: the IC50 is more than 1000 nM.
The same measure, in the same setting: with `COc1ccc2c(Nc3c(Cl)cnc(Cl)c3Cl)ccnc2c1OC1CCCC1` [Example 13, 8-(Cyclopentyloxy)-7-methoxy-N-(2,3,5-trichloropyridin-4-yl)quinolin-4-amine] the figure was more than 1000 nM.
Same read-out and setting: to `COc1ccc2c(Nc3c(Cl)cncc3Cl)cc(N(C)C)nc2c1OC1CCCC1` [Example 21, 8-(Cyclopentyloxy)-N4-(3,5-dichloropyridin-4-yl)-7-methoxy-N2,N2-dimethylquinoline-2,4-diamine] belongs not above 1000 nM; to `COc1ccc2c(Nc3c(Cl)c(Cl)nc(Cl)c3Cl)ccnc2c1OC1CCCC1` [Example 14, 8-(Cyclopentyloxy)-7-methoxy-N-(perchloropyridin-4-yl)quinolin-4-amine], more than 1000 nM.
The same measure, in the same setting: with `COc1ccc2c(Cc3c(Cl)cncc3Cl)ncnc2c1OC1CCCC1` [Example 3, 8-(Cyclopentyloxy)-4-[(3,5-dichloropyridin-4-yl)methyl]-7-methoxyquinazoline] the figure was not above 1000 nM.
In turn, `CNc1cc(Nc2c(Cl)cncc2Cl)c2ccc(OC)c(OC3CCCC3)c2n1` [Example 22, 8-(Cyclopentyloxy)-N4-(3,5-dichloropyridin-4-yl)-7-methoxy-N2-methylquinoline-2,4-diamine] came in with an IC50 not above 1000 nM.
Same read-out and setting: to `COc1ccc2c(Nc3c(Cl)cncc3Cl)cc(OCCCN(C)C)nc2c1OC1CCCC1` [Example 29, 8-(Cyclopentyloxy)-N-(3,5-dichloropyridin-4-yl)-2-(3-(dimethylamino)propoxy)-7-methoxyquinolin-4-amine] belongs not above 1000 nM; to `COc1ccc2c(C(=O)Nc3c(Cl)cncc3Cl)coc2c1OC1CCCC1` [Example 18, 7-(Cyclopentyloxy)-N-(3,5-dichloropyridin-4-yl)-6-methoxybenzofuran-3-carboxamide], more than 1000 nM.
Molecule `COc1ccc2c(Nc3c(Cl)cncc3Cl)cc(Cl)nc2c1OC1CCCC1` [Example 24, 2-Chloro-8-(cyclopentyloxy)-N-(3,5-dichloropyridin-4-yl)-7-methoxyquinolin-4-amine] gave an IC50 not above 1000 nM.
Same read-out and setting: to `COc1ccc2c(Cc3c(Cl)cncc3Cl)ccnc2c1OC1CCCC1` [Example 6, 8-(Cyclopentyloxy)-4-[(3,5-dichloropyridin-4-yl)methyl]-7-methoxyquinoline] belongs more than 1000 nM.
On the same count and under the same terms, with `COc1ccc2c(Nc3c(Cl)cccc3Cl)ncnc2c1OC1CCCC1` [Example 1, 8-(Cyclopentyloxy)-N-(2,6-dichlorophenyl)-7-methoxyquinazolin-4-amine] the figure was more than 1000 nM.
Same read-out and setting: with `COc1ccc2c(Nc3c(Cl)cncc3Cl)cc(OCCO)nc2c1OC1CCCC1` [Example 27, 2-(8-(Cyclopentyloxy)-4-(3,5-dichloropyridin-4-ylamino)-7-methoxyquinolin-2-yloxy)ethanol] the figure was not above 1000 nM; with `COc1ccc2c(Nc3c(Cl)cccc3Cl)ccnc2c1OC` [Example 11, N-(2,6-Dichlorophenyl)-7,8-dimethoxyquinolin-4-amine], more than 1000 nM.
`COc1ccc2c(Nc3c(Cl)cncc3Cl)ccnc2c1OC1CCCC1` [Example 5, 8-(Cyclopentyloxy)-N-(3,5-dichloropyridin-4-yl)-7-methoxyquinolin-4-amine] displayed an IC50 of more than 1000 nM.
Still for that read-out and setting: to `COc1ccc2c(c1OC1CCCC1)OCCC2Nc1c(Cl)cncc1Cl` (stereo not shown) [Example 17, 3,5-Dichloro-N-(8-(cyclopentyloxy)-7-methoxychroman-4-yl)pyridin-4-amine] belongs more than 1000 nM.
On the same count and under the same terms, to `COc1ccc2c(Nc3c(Cl)cncc3Cl)coc2c1OC1CCCC1` [Example 10, 3,5-Dichloro-N-[7-(cyclopentyloxy)-6-methoxybenzofuran-3-yl]pyridine-4-amine] belongs more than 1000 nM.
On the same count and under the same terms, to `COc1ccc2c(Nc3c(Cl)cccc3Cl)ccnc2c1OC1CCCC1` [Example 4, 8-(Cyclopentyloxy)-N-(2,6-dichlorophenyl)-7-methoxyquinolin-4-amine] belongs more than 1000 nM.

In another assay the test system is dry eye (corneal staining, tear breakup time). Kind of assay: Lacrimal gland inflammation-induced dry eye in rabbits. In kind it is in vivo. Conditions: 1 × 10^−2 percent concentration, topical ocular BID, rabbit ConA dry eye. The text has this:
A more detailed description of the assay used herein may be found in Naglehout, T J et al. 2005, “Preservation of Tear Film Integrity and Inhibition of Corneal Injury by Dexamethasone in a Rabbit Model of Lacrimal Gland Inflammation-Induced Dry Eye,”J. Ocular Pharm. Ther., 21:2. 139-148, the disclosure of which is hereby incorporated by reference as if written herein in its entirety. Rabbits (n=4/group) were randomized into treatment groups and dosed topically BID with maxidex vehicle or test drug beginning one day prior to initiation of dry eye. Each rabbit received bilateral lacrimal gland injections of saline or ConA (300 μg/30 μl) and topical ocular dosing was continued BID throughout the study. Desiccation was initiated 1-2 hours following lacrimal gland injection by placing conscious rabbits in the environmental chamber (10-15% humidity/72° F.). Following 72 consecutive hours of exposure to this dry environment, the animals were anesthetized and sutures were placed in each upper and lower eyelid and lifted to form a corneal/conjunctival cup. Methylene blue dye (1 mL, 1% in dH2O) was added to the cup for three minutes and the excess removed by washing with 200 mL BSS®. The contralateral eye was then stained using the same procedure. Rabbits were euthanized immediately following the staining procedure and the eyes were excised. The corneas were isolated with a trephine and the 9.5-mm punch of the cornea was placed in 2 mL acetone/saturated sodium sulfate (7:3, vol./vol.). Absorbance of the extracted dye was determined at 660 nm. TBUT was quantified in a separate group of treated animals. TBUT was determined by instilling 5 μL sodium fluorescein into the cul de sac and manually blinking the lids to distribute the fluorescein within the tear film. Under slit lamp observation, the eye was held open and the time whereby one or more black spots or streaks appeared in the precorneal tear film was recorded. The rabbits were euthanized 3 days following ConA inj ection.
As for `COc1ccc2c(Nc3c(Cl)cncc3Cl)cc(N)nc2c1OC1CCCC1` [Example 23, 8-(Cyclopentyloxy)-N4-(3,5-dichloropyridin-4-yl)-7-methoxyquinoline-2,4-diamine], the “Activity at Percent Concentration Tested” value is “Inactive”.

The assay is the same for the next values; noted with them: 1 × 10^−4 percent concentration, topical ocular BID, rabbit ConA dry eye.
As to `COc1ccc2c(Nc3c(Cl)cncc3Cl)cc(N)nc2c1OC1CCCC1` [Example 23, 8-(Cyclopentyloxy)-N4-(3,5-dichloropyridin-4-yl)-7-methoxyquinoline-2,4-diamine], the “Activity at Percent Concentration Tested” value is reported as “Inactive”.

Staying with this assay, now noted: 1 × 10^−6 percent concentration, topical ocular BID, rabbit ConA dry eye.
On to `COc1ccc2c(Nc3c(Cl)cncc3Cl)cc(N)nc2c1OC1CCCC1` [Example 23, 8-(Cyclopentyloxy)-N4-(3,5-dichloropyridin-4-yl)-7-methoxyquinoline-2,4-diamine], for which the “Activity at Percent Concentration Tested” value was “Inactive”.
